Source: paper PMC8410034, “A variant of ASIC2 mediates sodium retention in nephrotic syndrome” (JCI Insight, 2021)

Experiments:
[1] = biological target: T1, ASIC2a (Rattus norvegicus, UniProt Q62962); test: two-electrode voltage clamp, X. laevis oocytes; assay type: cell-based; conditions: acid-induced (pH 4) plateau current, -70 mV
T1 construct: gene Asic2; full-length, expressed alone in X. laevis oocytes (3 ng cRNA, pGH19); homotrimer
T1 sequence (Q62962 1-512): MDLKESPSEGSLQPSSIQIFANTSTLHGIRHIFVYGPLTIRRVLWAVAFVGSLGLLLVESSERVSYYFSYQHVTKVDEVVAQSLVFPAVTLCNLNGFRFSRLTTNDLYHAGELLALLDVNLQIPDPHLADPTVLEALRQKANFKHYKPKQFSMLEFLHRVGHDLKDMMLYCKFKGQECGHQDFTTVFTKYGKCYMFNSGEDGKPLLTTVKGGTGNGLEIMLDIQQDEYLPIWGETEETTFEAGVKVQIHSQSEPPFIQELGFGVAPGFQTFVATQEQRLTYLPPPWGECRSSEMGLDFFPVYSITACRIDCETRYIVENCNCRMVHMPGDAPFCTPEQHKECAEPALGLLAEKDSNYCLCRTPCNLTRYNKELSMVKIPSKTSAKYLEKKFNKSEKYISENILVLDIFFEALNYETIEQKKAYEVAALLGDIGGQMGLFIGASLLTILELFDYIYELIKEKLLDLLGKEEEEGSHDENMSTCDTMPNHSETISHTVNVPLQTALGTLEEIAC

[2] = biological target: T2, ASIC2a/t-ASIC2b (Rattus norvegicus, UniProt A0A0G3F2N6+Q62962); test: two-electrode voltage clamp, X. laevis oocytes; assay type: cell-based
T2 construct: gene Asic2; X. laevis oocytes injected with 3 ng Asic2a + 6 ng Asic2b-type cRNA; t-ASIC2b lacks first 71 N-terminal residues; heterotrimer, stoichiometry unknown (mix with 0, 1 or 2 t-ASIC2b)
T2 sequence (A0A0G3F2N6 1-492): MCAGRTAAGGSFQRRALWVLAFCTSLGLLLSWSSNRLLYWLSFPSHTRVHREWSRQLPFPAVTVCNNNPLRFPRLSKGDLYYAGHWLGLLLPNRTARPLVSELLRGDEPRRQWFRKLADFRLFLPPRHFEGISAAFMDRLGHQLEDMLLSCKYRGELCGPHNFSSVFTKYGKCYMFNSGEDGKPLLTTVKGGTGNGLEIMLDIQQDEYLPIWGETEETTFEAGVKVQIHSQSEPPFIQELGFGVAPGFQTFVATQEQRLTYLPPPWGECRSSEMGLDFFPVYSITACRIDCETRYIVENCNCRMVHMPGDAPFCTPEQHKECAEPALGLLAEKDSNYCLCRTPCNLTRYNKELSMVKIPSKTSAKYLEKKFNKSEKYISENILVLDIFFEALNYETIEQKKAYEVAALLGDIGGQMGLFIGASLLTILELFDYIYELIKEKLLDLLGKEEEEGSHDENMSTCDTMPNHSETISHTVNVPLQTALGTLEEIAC
T2 sequence (Q62962 1-563 isoform Q62962-2): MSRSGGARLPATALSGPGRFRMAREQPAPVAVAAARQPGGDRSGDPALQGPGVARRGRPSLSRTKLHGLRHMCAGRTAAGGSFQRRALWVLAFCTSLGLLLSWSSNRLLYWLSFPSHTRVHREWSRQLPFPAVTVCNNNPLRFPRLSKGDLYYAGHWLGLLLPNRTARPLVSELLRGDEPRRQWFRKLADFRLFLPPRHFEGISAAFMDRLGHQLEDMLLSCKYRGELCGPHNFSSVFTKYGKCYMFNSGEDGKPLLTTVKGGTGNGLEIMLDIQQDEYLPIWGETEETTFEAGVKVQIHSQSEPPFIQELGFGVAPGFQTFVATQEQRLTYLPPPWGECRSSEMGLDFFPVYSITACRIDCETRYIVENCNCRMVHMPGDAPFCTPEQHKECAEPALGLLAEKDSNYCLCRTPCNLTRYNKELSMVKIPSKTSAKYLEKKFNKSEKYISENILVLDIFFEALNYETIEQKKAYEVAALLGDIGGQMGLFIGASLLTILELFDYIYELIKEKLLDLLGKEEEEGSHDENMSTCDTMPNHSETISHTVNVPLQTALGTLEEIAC

- IC50 [2]: ~50 µM
Compound: N=C(N)NC(=O)c1nc(Cl)c(N)nc1N [amiloride]
- % inhibition at 100 μM [1]: did not alter significantly the apparent low sensitivity of ASIC2a to amiloride
